Blank lines part the entries; values can stand above or below the compound they belong to. The source made the active and inactive calls. The rule behind the calls is not given here.
Columns and labels:
[1] = molecular target: T1, NACHT, LRR and PYD domains-containing protein 3 (Homo sapiens, UniProt Q96P20); experiment: Inhibition of NLRP3 in human THP1 cells assessed as inhibition of IL-1beta production at 1 uM relative to control; type: cell-based; details: THP-1
[2] = molecular target: T1, NACHT, LRR and PYD domains-containing protein 3; experiment: Inhibition of NLRP3 in human THP1 cells assessed as inhibition of IL-1beta production; type: cell-based, THP-1
[3] = AUC (0 to t) in C57BL/6 mouse at 1 mg/kg, iv; type: ADME, organism-based; set-up: dose 1 mg/kg; details: in vivo
[4] = Initial plasma concentration in C57BL/6 mouse at 1 mg/kg, iv; type: ADME, organism-based
[5] = Cmax in C57BL/6 mouse at 3 mg/kg, po; type: ADME, organism-based; set-up: route oral, dose 3 mg/kg; details: in vivo
[6] = Terminal half life in C57BL/6 mouse at 1 mg/kg, iv; type: ADME, organism-based; details: in vivo, read-out: beta t1/2 (converted)
[7] = MRT in C57BL/6 mouse at 1 mg/kg, iv; type: ADME, organism-based; details: in vivo
[8] = AUC (0 to t) in C57BL/6 mouse at 3 mg/kg, po; type: ADME, organism-based; set-up: dose 3 mg/kg; details: in vivo
[9] = Oral bioavailability in C57BL/6 mouse at 3 mg/kg; type: ADME, organism-based; details: in vivo
[10] = Volume of distribution at steady state in C57BL/6 mouse at 1 mg/kg, iv; type: ADME, organism-based; details: in vivo, read-out: Vdss
[11] = Clearance in C57BL/6 mouse at 1 mg/kg, iv; type: ADME, organism-based; details: in vivo
[12] = MRT in C57BL/6 mouse at 3 mg/kg, po; type: ADME, organism-based; details: in vivo
[13] = Tmax in C57BL/6 mouse at 3 mg/kg, po; type: ADME, organism-based; details: in vivo
[14] = Terminal half life in C57BL/6 mouse at 3 mg/kg, po; type: ADME, organism-based; details: in vivo, read-out: beta t1/2 (converted)
[15] = Metabolic stability in dog liver microsomes; type: ADME, Canis lupus familiaris, Microsome
[16] = Aqueous solubility of the compound; type: physicochemical; details: buffer
[17] = Metabolic stability in mouse liver microsomes; type: ADME, Microsome
[18] = Metabolic stability in rat liver microsomes; type: ADME, Microsome
Cytochrome P450 2C8 = molecular target: T2, Cytochrome P450 2C8 (Homo sapiens, UniProt P10632); experiment: Inhibition of CYP2C8 (unknown origin); type: ADME
T2 sequence (P10632 whole entry): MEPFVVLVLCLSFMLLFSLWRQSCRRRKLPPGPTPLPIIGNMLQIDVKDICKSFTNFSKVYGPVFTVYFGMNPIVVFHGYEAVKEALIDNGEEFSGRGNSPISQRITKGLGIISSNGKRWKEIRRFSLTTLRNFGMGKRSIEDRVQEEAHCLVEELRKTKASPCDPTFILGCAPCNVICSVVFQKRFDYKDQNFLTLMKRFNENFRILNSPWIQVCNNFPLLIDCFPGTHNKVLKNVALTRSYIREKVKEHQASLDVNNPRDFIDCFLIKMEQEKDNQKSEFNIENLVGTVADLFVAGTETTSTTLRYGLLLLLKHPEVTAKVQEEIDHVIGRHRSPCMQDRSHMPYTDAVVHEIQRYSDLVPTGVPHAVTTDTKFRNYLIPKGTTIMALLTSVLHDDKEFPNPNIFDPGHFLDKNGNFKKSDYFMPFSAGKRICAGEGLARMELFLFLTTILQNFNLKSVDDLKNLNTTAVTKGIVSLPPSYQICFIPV

[19] = Metabolic stability in human liver microsomes; type: ADME, Microsome
[20] = molecular target: T3, Interferon-inducible protein AIM2 (Homo sapiens) (UniProt O14862); experiment: Inhibition of AIM2 inflammasome (unknown origin)
T3 sequence (whole entry): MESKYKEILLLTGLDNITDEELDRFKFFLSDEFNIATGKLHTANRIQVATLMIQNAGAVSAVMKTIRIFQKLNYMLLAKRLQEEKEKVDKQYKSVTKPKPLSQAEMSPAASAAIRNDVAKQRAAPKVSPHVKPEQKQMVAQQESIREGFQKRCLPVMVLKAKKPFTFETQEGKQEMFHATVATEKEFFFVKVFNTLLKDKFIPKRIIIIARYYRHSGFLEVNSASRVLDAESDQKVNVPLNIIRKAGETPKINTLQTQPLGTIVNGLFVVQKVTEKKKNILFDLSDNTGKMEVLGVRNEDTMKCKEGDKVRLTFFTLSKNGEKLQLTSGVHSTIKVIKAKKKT

[21] = Permeability in human Caco2 cells; type: ADME, cell-based; details: caco-2
Cytochrome P450 2C9 = Cytochrome P450 2C9 (Homo sapiens, UniProt P11712); experiment: Inhibition of CYP2C9 (unknown origin); type: ADME
Cytochrome P450 2C9, sequence (P11712 whole entry): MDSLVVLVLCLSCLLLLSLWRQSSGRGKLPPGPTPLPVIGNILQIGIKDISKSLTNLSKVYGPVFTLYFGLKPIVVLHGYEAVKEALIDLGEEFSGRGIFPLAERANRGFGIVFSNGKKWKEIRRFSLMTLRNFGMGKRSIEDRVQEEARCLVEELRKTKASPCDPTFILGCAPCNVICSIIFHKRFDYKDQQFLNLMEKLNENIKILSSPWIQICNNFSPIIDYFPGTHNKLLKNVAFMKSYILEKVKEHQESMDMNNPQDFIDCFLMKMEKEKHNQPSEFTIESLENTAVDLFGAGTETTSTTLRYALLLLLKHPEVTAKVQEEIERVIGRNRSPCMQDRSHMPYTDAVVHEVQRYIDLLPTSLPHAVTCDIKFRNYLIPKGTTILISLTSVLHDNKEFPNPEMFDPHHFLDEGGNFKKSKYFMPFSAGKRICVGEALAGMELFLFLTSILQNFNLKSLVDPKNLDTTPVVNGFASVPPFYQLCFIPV

T1 sequence (Q96P20 whole entry, the tested form may be a part): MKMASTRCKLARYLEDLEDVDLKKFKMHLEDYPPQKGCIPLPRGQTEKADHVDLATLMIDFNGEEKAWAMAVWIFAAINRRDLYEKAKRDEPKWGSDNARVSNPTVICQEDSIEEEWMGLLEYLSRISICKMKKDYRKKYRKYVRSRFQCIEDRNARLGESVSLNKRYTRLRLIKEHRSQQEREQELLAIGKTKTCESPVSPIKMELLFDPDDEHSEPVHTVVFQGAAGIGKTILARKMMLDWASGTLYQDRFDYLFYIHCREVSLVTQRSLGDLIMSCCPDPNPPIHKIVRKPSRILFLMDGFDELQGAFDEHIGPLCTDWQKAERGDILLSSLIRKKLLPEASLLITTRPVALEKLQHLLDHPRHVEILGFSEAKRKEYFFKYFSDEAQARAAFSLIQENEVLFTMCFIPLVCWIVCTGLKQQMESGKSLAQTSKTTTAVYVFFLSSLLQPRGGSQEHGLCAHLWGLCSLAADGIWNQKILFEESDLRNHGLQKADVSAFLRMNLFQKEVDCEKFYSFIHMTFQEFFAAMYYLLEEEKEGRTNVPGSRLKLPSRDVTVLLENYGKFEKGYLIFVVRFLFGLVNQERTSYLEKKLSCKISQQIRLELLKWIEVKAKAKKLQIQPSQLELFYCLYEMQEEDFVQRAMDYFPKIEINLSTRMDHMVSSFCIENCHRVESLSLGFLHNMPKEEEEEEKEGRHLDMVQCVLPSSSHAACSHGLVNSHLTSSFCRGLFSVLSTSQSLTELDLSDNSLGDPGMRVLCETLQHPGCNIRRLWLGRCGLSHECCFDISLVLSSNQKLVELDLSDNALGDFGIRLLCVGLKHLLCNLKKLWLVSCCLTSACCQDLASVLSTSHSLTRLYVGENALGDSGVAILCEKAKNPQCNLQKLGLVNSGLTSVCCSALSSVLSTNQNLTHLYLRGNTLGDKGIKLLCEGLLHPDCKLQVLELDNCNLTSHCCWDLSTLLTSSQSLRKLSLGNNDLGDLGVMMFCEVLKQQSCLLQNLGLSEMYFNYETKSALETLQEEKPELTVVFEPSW

SMILES: Cc1cnc(/C=C/S(=O)(=O)NC(=O)Nc2c3c(cc4c2CCC4)CCC3)s1
IC50 [2]: 1060 nM

SMILES: O=C(Nc1c2c(cc3c1CCC3)CCC2)NS(=O)(=O)/C=C/c1ccccn1
IC50 [2]: 1000 nM

SMILES: O=C(Nc1cc(C(F)(F)F)ccc1C(F)(F)F)NS(=O)(=O)/C=C/c1nccs1
inhibition [1]: < 50%
IC50 [2]: > 1000 nM

SMILES: CC(C)c1cccc(C(C)C)c1NC(=O)NS(=O)(=O)/C=C/c1nccs1
inhibition [1]: < 50%
IC50 [2]: > 1000 nM

SMILES: O=C(Nc1c(F)cccc1C(F)(F)F)NS(=O)(=O)/C=C/c1nccs1
inhibition [1]: < 50%
IC50 [2]: > 1000 nM

SMILES: O=C(Nc1ccccc1C(F)(F)F)NS(=O)(=O)/C=C/c1nccs1
inhibition [1]: < 50%
IC50 [2]: > 1000 nM

SMILES: COc1cccc(OC)c1NC(=O)NS(=O)(=O)/C=C/c1nccs1
inhibition [1]: < 50%
IC50 [2]: > 1000 nM

Next, values leading:

inhibition [1]: < 50%
SMILES: O=C(Nc1c2c(cc3c1OCC3)OCC2)NS(=O)(=O)/C=C/c1nccs1

AUC(0-t) [3]: 20700 ng·h/mL
C0 [4]: 22200 ng/mL
Cmax [5]: 11700 ng/mL
half-life [6]: 3.97 h
MRT [7]: 3.22 h
AUC(0-t) [8]: 46900 ng·h/mL
F [9]: 77%
Vd [10]: 0.15 L/kg
clearance [11]: 0.8 mL/min/kg
MRT [12]: 3.07 h
Tmax [13]: 0.25 h
half-life [14]: 1.32 h
SMILES: CC(C)(O)c1coc(S(=O)(=O)NC(=O)Nc2c3c(cc4c2CCC4)CCC3)c1

inhibition [1]: < 50%
IC50 [2]: > 1000 nM
SMILES: O=C(Nc1c2c(cc3c1CCC3)CCC2)NS(=O)(=O)/C=C/c1nc2ccccc2s1

Stabilty [15]: Stable
solubility [16]: Soluble
Stabilty [17]: Stable
AUC(0-t) [3]: 16500 ng·h/mL
C0 [4]: 6270 ng/mL
Cmax [5]: 8490 ng/mL
Stabilty [18]: Stable
half-life [6]: 2.35 h
inhibition (INH) (Cytochrome P450 2C8): Active
Stabilty [19]: Stable
MRT [7]: 3.23 h
AUC(0-t) [8]: 48900 ng·h/mL
F [9]: 99%
Vd [10]: 0.2 L/kg
clearance [11]: 1.01 mL/min/kg
inhibition [20]: inactive
permeability [21]: Permeable
MRT [12]: 4.9 h
inhibition (INH) (Cytochrome P450 2C9): Active
Tmax [13]: 0.25 h
half-life [14]: 2.86 h
SMILES: O=C(Nc1c2c(cc3c1CCC3)CCC2)NS(=O)(=O)/C=C/c1nccs1

inhibition [1]: < 50%
IC50 [2]: > 1000 nM
SMILES: Cc1cc(C)c(C)c(NC(=O)NS(=O)(=O)/C=C/c2nccs2)c1C
